Patent publication US20220024851A1, “CRYSTALLINE FORMS OF MULTICYCLIC COMPOUNDS AND USES THEREOF” (Convelo Therapeutics, Inc., priority 2018, published 2022)
Counter-ions that a name gives are not always drawn.

Assays:
Format in all cases: physicochemical
[1] = Aqueous kinetic solubility by aliquot addition method; settings: water; for Kinetic Solubility / solubility kinetic: ambient temperature, visual dissolution
Text: Generated solids were typically observed by polarized light microscopy and, if crystalline (i.e. display birefringence and extinction), analyzed by XRPD. The XRPD patterns were compared to each other and to available reference patterns of salt formers. If unique by XRPD, the materials were further analyzed by ^1H NMR, TGA, DSC, and DVS. Kinetic solubilities of selected materials were estimated by aliquot addition method. Equilibrium solubilities were estimated gravimetrically using supernatants from suspensions equilibrated at ambient temperature for approximately 7-10 days.
Weighed samples of material were treated with aliquots of water at ambient temperature. Samples were typically sonicated between additions to facilitate dissolution. Complete dissolution was observed through visual inspection. Solubilities were calculated based on the total amount of solvent added to achieve complete dissolution and may be greater than the value reported due to incremental solvent addition and the inherent kinetics of dissolution. If dissolution was not observed, values are reported as “less than”. If complete dissolution was observed upon the first aliquot of solvent, values are reported as “greater than”.
Kinetic solubility was estimated by aliquot addition method, and dissolution was judged by visual observations. If dissolution was not observed, values are reported as “less than.” If complete dissolution was observed upon the first aliquot of solvent, values are reported as “greater than.” Kinetic solubility of selected salts is presented in Table 8.

[2] = Dynamic vapor sorption (DVS) / hygroscopicity; settings: for Desorption, hysteresis and form change after moisture sorption-desorption: moisture sorption-desorption cycles, XRPD
Method: The crystalline forms provided can be additionally characterized by dynamic vapor sorption (DVS), wherein a sample is subjected to varying conditions of humidity and temperature, and the response of the sample is measured gravimetrically. The result of a DVS analysis particularly can be a dual curve providing sample weight percent as a function of relative humidity (RH) over time, a dual curve providing sample water content as a function of RH over time, a curve providing weight percent in relation to RH, or a curve providing water content in relation to RH. Equipment useful for measuring such data is known in the art, and any such equipment can be used to measure the compounds according to the present invention. In certain embodiments, DVS analysis can be carried out by scanning at a series of specific RH values. Thus, specific crystalline forms according to the invention may be identified and described in relation to the representative graph and/or the approximate peaks obtained in DVS analysis, particularly scanning from 0% to 95% RH with a step interval of 5% or 10% RH.
Hygroscopicities of the materials described in the present disclosure are classified according to Table 1
DVS data were collected on a VTI SGA-100 Vapor Sorption Analyzer. NaCl and PVP were used as calibration standards. Samples were not dried prior to analysis. Sorption and desorption data were collected over a range from 5% to 95% RH at 10% RH increments under a nitrogen purge. The equilibrium criterion used for analysis was less than 0.0100% weight change in 5 minutes with a maximum equilibration time of 3 hours. Data were not corrected for the initial moisture content of the samples.

[3] = Thermogravimetric analysis (TGA), thermal decomposition; settings: for Decomposition onset: TGA, heated under nitrogen
Method: TGA is a method of thermal gravimetric analysis in which changes in physical and chemical properties of a material are measured as a function of increasing temperature (with constant heating rate) or as a function of time (with constant temperature and/or constant mass loss). TGA can provide information about physical phenomena, such as second-order phase transitions, or about chemical phenomena, such as desolvation and/or decomposition.
TG analyses described herein were performed using a Mettler Toledo TGA/DSC3+ analyzer. Balance check was performed using calcium oxalate, and temperature calibration was performed using indium, tin, and zinc. The sample was placed in an aluminum pan. The sample was sealed, the lid pierced, then inserted into the TG furnace. The furnace was heated under nitrogen.

[4] = upon increase of RH / entire RH range

SMILES | Kinetic Solubility [1] | Kinetic Solubility ([1]; listed as Besylate slat) | DVS weight gain ([2]; 5-85% RH) | DVS weight gain ([2]; 85-95% RH) | Desorption, hysteresis and form change after moisture sorption-desorption [2] | Hygroscopicity [2, 4] | Decomposition onset [3] | DVS weight gain ([2]; 5-75% RH) | DVS weight gain ([2]; 75-95% RH) | Hygroscopicity ([2]; above 75% RH) | Hygroscopicity ([2]; below 75% RH) | solubility kinetic [1] | fold more soluble than all other crystalline salts isolated (kinetic solubility) ([1]; vs other crystalline salts) | DVS weight gain ([2]; 5 to 95% RH) | DVS weight gain ([2]; 5-95% RH) | Hygroscopicity ([2]; upon increase of RH / entire RH range, listed as salicylate) | Thermal stability [3] | Hygroscopicity ([2]; above 65% RH) | Hygroscopicity ([2]; below 65% RH)
CCN(C/C=C\c1ccc(C2CCCCC2)c(Cl)c1)C1CCCCC1.O=S(=O)(O)c1ccccc1 [Besylate salt, Besylate Salt of Cis-N-cyclohexyl-N-ethyl-3-(3-chloro-4-cyclohexylphenyl)prop-2-enylamine] | <600 µg/mL | < 1000 µg/mL | about 0.88% | about 0.85% | complete desorption without form change and with almost no hysteresis | limited hygroscopicity | 274 °C | – | – | – | – | – | – | – | – | – | – | – | –
CCN(C/C=C\c1ccc(C2CCCCC2)c(Cl)c1)C1CCCCC1.O=S(=O)(O)CCS(=O)(=O)O [Edisylate salt, Edisylate Salt of Cis-N-cyclohexyl-N-ethyl-3-(3-chloro-4-cyclohexylphenyl)prop-2-enylamine] | – | – | – | – | form change to a highly disordered material | – | 260 °C | about 0.35% | about 18.55% | significant hygroscopicity and deliquesces | non-hygroscopic | – | – | – | – | – | – | – | –
CCN(C/C=C\c1ccc(C2CCCCC2)c(Cl)c1)C1CCCCC1.CCS(=O)(=O)O [Esylate salt, Esylate Salt of Cis-N-cyclohexyl-N-ethyl-3-(3-chloro-4-cyclohexylphenyl)prop-2-enylamine] | – | – | about 0.35% | 0.51% | complete desorption without hysteresis or form change | limited hygroscopicity | 268 °C | – | – | – | – | 30000 µg/mL | more than 30 fold | about 0.9 wt % | – | – | – | – | –
CCN(C/C=C\c1ccc(C2CCCCC2)c(Cl)c1)C1CCCCC1 [Salicylate salt, Salicylate Salt of Cis-N-cyclohexyl-N-ethyl-3-(3-chloro-4-cyclohexylphenyl)prop-2-enylamine] | – | – | – | – | – | non-hygroscopic | 212 °C | – | – | – | – | < 1000 µg/mL | – | about 0.04 wt % | about 0.04% | lack of hygroscopicity | thermally stable | – | –
CCN(C/C=C\c1ccc(C2CCCCC2)c(Cl)c1)C1CCCCC1.O=C(O)c1ccc2ccccc2c1O [Xinafoate salt, Xinafoate Salt of Cis-N-cyclohexyl-N-ethyl-3-(3-chloro-4-cyclohexylphenyl)prop-2-enylamine] | – | – | about 0.88% | about 0.85% | A form change is suggested | – | 146 °C | – | – | – | – | – | – | – | – | – | – | limited hygroscopicity | non-hygroscopic
